Test results reported in PMC4990076 (MedChemComm, 2016).

Target: human Icmt (hIcmt) (Homo sapiens, UniProt O60725)
Test: in vitro vapor diffusion assay for hIcmt activity
Format: biochemical
Conditions: not given

Chain of human Icmt (hIcmt) (O60725 whole entry, the tested form may be a part): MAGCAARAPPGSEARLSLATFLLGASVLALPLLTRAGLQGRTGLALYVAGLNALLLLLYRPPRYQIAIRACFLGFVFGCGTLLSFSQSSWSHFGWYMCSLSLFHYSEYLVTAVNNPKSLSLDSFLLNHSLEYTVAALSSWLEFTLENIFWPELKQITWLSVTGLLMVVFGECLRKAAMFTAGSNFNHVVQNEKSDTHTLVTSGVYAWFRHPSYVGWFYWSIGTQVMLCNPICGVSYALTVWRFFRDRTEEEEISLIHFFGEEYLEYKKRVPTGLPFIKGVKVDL

| Compound | hIcmt inhibitory activity (in words) |
| --- | --- |
| c1ccc(C(=C2CCOCC2)c2ccc3ccccc3c2)cc1 [Compound 6] | inactive |
| c1ccc2cc(CC3CCOCC3)ccc2c1 [Compound 7] | abolished activity |
| O=C(c1ccc2ccccc2c1)C1CCOCC1 [Compound 8] | abolished activity |
| c1csc(C(c2ccc3ccccc3c2)C2CCNCC2)c1 (centres unmarked) [Compound 11] | not active |

Second part, the molecule after the results:

| hIcmt inhibitory activity (in words) | Compound |
| --- | --- |
| inactive | OC(c1ccccc1)(c1cccs1)C1CCOCC1 (centres unmarked) [Compound 9] |
| inactive | c1ccc(C(=C2CCOCC2)c2cccs2)cc1 [Compound 10] |
| not active | CN1CCC(C(c2ccc3ccccc3c2)c2cccs2)CC1 (centres unmarked) [Compound 12] |

System: Ras localization
Test: not given
Conditions: at micromolar concentrations; cited from earlier work

| Compound | Ras mislocalization in cells |
| --- | --- |
| CCCCCCCCn1cc(CC(N)=O)c2cc(-c3cccc(C)c3)ccc21 [Cysmethynil] | causes Ras mislocalization |
